Measurements published in US20080293771A1, “AZACYCLYLBENZAMIDE DERIVATIVES AS HISTAMINE-3 ANTAGONISTS” (Wyeth, priority 2007, published 2008).
Counter-ions that a name gives are not always drawn.

Key:
[1] = target: T1, Human Histamine H3 Receptor (Homo sapiens, UniProt Q9Y5N1); assay: Methyl histamine binding in Human Histamine H3 Receptor Cell Line; settings: read-out: hH3 Binding Ki
T1 construct: expressed in transfected cells; host or cells: HEK293T (stably transfected; membrane preparation)
Description: Evaluation of Methyl histamine binding in Human Histamine H3 Receptor Cell Line
The affinity of test compounds for the histamine 3 (H3) receptor is evaluated in the following manner. […] Cells are scraped from the plate, transferred to centrifuge tubes, washed one time in PBS by centrifugation in a Sorvall RT7 Plus centrifuge (2000 rpm 10 minutes, 4° C.). The resulting pellets are stored at −80° C. until ready for use. Cells are re-suspended in buffer (50 mM Tris pH=7.5) and placed in a Dounce homogenizer, douncing ten times to homogenize cells. The homogenate is spun down by centrifugation (Sorvall RT7 Plus, 1800 rpm 10 minutes, 4° C.). The supernatant is placed in a Corex tube and spun down by centrifugation (Sorvall RC 5c Plus, 17,000 rpm 20 minutes, 4° C.). The pellet is resuspended in buffer (50 mM Tris, pH 7.5). Protein concentration (ug/ul) is determined using the Micro-BCA Protein Determination. The binding assay is set up in a 96 well microtiter plate in a total volume of 250 uL. Non-specific binding is determined in the presence of 10 uM clobenpropit. The final radioligand concentration is 1 nM. The test compound is serially diluted using the Beckman Biomek2000 to a final approximate range of 100 uM to 100 pM. Membranes are suspended in buffer, homogenized in 2 bursts of ten seconds using a Vitris mechanical homogenizer set at power setting 5. Ten μg of membranes are added to each well. Following a one hour incubation at 30° C., the reaction is terminated by the addition of ice cold buffer and rapid filtration with a Packard Filtermate Harvester through a GF/B filter pre-soaked with 1% PEI for one hour. The plate is dried for one hour at 37° C. and 60 μL Microscint Scintillant is added to each well. The CPM per well is measured on a Packard Top Count NXT. Ki values are determined in nM. […] CPM values are expressed as % specific binding and plotted vs compound concentration. A curve is fitted using a four-parameter logistic fit and the IC50 value is determined. The Ki is calculated from this using the Cheng-Prusoff equation: […]=IC50/1+(L/Kd) where L=concentration of free radioligand used in the assay, and Kd is the dissociation constant of the radioligand for the receptor. L is determined for each experiment by counting an aliquot of the diluted radioligand (corresponding to that added to each well) and the Kd has previously been determined under identical conditions for this cell line/radioligand.

T1 sequence (Q9Y5N1 whole entry): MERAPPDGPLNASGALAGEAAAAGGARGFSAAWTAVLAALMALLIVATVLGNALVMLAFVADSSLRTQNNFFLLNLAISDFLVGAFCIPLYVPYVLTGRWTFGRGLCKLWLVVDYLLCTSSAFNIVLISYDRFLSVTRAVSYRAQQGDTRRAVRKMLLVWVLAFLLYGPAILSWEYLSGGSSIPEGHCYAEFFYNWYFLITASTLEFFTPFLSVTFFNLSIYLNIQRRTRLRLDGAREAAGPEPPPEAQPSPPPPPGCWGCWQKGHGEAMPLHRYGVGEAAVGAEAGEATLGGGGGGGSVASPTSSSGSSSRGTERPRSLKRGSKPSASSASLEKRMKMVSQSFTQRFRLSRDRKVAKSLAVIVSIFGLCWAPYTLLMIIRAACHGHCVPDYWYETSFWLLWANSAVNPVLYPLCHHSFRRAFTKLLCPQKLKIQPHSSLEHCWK

Structure (SMILES)	melting point	Ki [1]
COc1cc(C(=O)N(C)[C@@H]2CCN(C(C)C)C2)ccc1-n1c(C)nc2ccccc21 (as salt: hydrochloride) [Example 109, 3-methoxy-N-methyl-4-(2-methyl-1H-benzimidazol-1-yl)-N-[(3R)-1-(1-methylethyl)pyrrolidin-3-yl]benzamide]	168 to 170 °C	–
COc1cc(C(=O)N(C)[C@@H]2CCN(C3CCC3)C2)ccc1-n1c(C)nc2ccccc21 (as salt: hydrochloride) [Example 110, N-[(3R)-1-cyclobutylpyrrolidin-3-yl]-3-methoxy-N-methyl-4-(2-methyl-1H-benzimidazol-1-yl)benzamide]	168 to 170 °C	–
COc1cc(-n2c(C)nc3ccccc32)ccc1C(=O)N(C)[C@@H]1CCN(C(C)C)C1 (as salt: hydrochloride) [Example 111, (R)—N-(1-isopropylpyrrolidin-3-yl)-2-methoxy-N-methyl-4-(2-methyl-1H-benzo[d]imidazol-1-yl)benzamide]	193 to 195 °C	–
COc1cc(-n2c(C)nc3ccccc32)ccc1C(=O)N(C)[C@@H]1CCN(C2CCC2)C1 (as salt: hydrochloride) [Example 112, (R)—N-(1-cyclobutylpyrrolidin-3-yl)-2-methoxy-N-methyl-4-(2-methyl-1H-benzo[d]imidazol-1-yl)benzamide]	202 to 204 °C	–
Cc1nc2ccccc2n1-c1ccc(C(=O)N(C)C2CCN(C(C)C)CC2)cc1F (as salt: hydrochloride) [Example 119, 3-fluoro-N-methyl-4-(2-methyl-1H-benzimidazol-1-yl)-N-[1-(1-methylethyl)piperidin-4-yl]benzamide]	279 to 281 °C	–
Cc1nc2ccccc2n1-c1ccc(C(=O)N(C)C2CCN(C3CCCC3)CC2)cc1F (as salt: hydrochloride) [Example 120, N-(1-cyclopentylpiperidin-4-yl)-3-fluoro-N-methyl-4-(2-methyl-1H-benzimidazol-1-yl)benzamide]	250 °C (dec.)	–
Cc1nc2ccccc2n1-c1ccc(C(=O)N(C)C2CCN(C(C)C)CC2)c(Cl)c1 (as salt: hydrochloride) [Example 121, 2-chloro-N-methyl-4-(2-methyl-1H-benzimidazol-1-yl)-N-[1-(1-methylethyl)piperidin-4-yl]benzamide]	250 °C (dec.)	–
Cc1nc2ccccc2n1-c1ccc(C(=O)N(C)C2CCN(C3CCCC3)CC2)c(Cl)c1 (as salt: hydrochloride) [Example 122, 2-chloro-N-(1-cyclopentylpiperidin-4-yl)-N-methyl-4-(2-methyl-1H-benzimidazol-1-yl)benzamide]	240 °C (dec.)	–
Cc1cc(C(=O)N(C)C2CCN(C(C)C)CC2)ccc1-n1c(C)nc2ccccc21 (as salt: hydrochloride) [Example 123, N,3-dimethyl-4-(2-methyl-1H-benzimidazol-1-yl)-N-[1-(1-methylethyl)piperidin-4-yl]benzamide]	250 °C (dec.)	–
Cc1cc(C(=O)N(C)C2CCN(C3CCCC3)CC2)ccc1-n1c(C)nc2ccccc21 (as salt: hydrochloride) [Example 124, N-(1-cyclopentylpiperidin-4-yl)-N,3-dimethyl-4-(2-methyl-1H-benzimidazol-1-yl)benzamide]	240 °C (dec.)	–
COc1cc(C(=O)N(C)C2CCN(C(C)C)CC2)ccc1-n1c(C)nc2ccccc21 (as salt: hydrochloride) [Example 125, 3-methoxy-N-methyl-4-(2-methyl-1H-benzimidazol-1-yl)-N-[1-(1-methylethyl)piperidin-4-yl]benzamide]	250 to 252 °C	–
COc1cc(C(=O)N(C)C2CCN(C3CCCC3)CC2)ccc1-n1c(C)nc2ccccc21 (as salt: hydrochloride) [Example 126, N-(1-cyclopentylpiperidin-4-yl)-3-methoxy-N-methyl-4-(2-methyl-1H-benzimidazol-1-yl)benzamide]	244 to 246 °C	–
COc1cc(-n2c(C)nc3ccccc32)ccc1C(=O)N(C)C1CCN(C(C)C)CC1 (as salt: hydrochloride) [Example 127, N-(1-isopropylpiperidin-4-yl)-2-methoxy-N-methyl-4-(2-methyl-1H-benzo[d]imidazol-1-yl)benzamide]	215 to 217 °C	–
COc1cc(-n2c(C)nc3ccccc32)ccc1C(=O)N(C)C1CCN(C2CCCC2)CC1 (as salt: hydrochloride) [Example 128, N-(1-cyclopentylpiperidin-4-yl)-2-methoxy-N-methyl-4-(2-methyl-1H-benzo[d]imidazol-1-yl)benzamide]	210 to 212 °C	–
Cc1nc2ccccc2n1-c1ccc(C(=O)N[C@@H]2CCN(C3CCCCC3)C2)cc1 (as salt: hydrochloride) [Example 137, N-[(3R)-1-cyclohexylpyrrolidin-3-yl]-4-(2-methyl-1H-benzimidazol-1-yl)benzamide]	194 to 196 °C	–
CCN(C(=O)c1ccc(-n2c(C)nc3ccccc32)cc1)[C@@H]1CCNC1 (as salt: hydrochloride) [Example 138, (R)—N-ethyl-4-(2-methyl-1H-benzo[d]imidazol-1-yl)-N-(pyrrolidin-3-yl)benzamide hydrochloride]	174 to 176 °C	–
CCN(C(=O)c1ccc(-n2c(C)nc3ccccc32)cc1)[C@@H]1CCN(C2CCCCC2)C1 (as salt: hydrochloride) [Example 142, N-[(3R)-1-cyclohexylpyrrolidin-3-yl]-N-ethyl-4-(2-methyl-1H-benzimidazol-1-yl)benzamide]	177 to 179 °C	–
Cc1nc2ccccc2n1Cc1ccc(C(=O)N(C)[C@@H]2CCN(C(C)C)C2)c2ccccc12 (as salt: hydrochloride) [Example 143a, (R)—N-(1-isopropylpyrrolidin-3-yl)-N-methyl-4-((2-methyl-1H-benzo[d]imidazol-1-yl)methyl)-1-naphthamide]	192 to 194 °C	–
Cc1nc2ccccc2n1Cc1ccc(C(=O)N(C)[C@@H]2CCN(C3CCC3)C2)c2ccccc12 (as salt: hydrochloride) [Example 143b, (R)—N-(1-cyclobutylpyrrolidin-3-yl)-N-methyl-4-((2-methyl-1H-benzo[d]imidazol-1-yl)methyl)-1-naphthamide]	157 to 159 °C	–
Cc1nc2ccccc2n1Cc1ccc(C(=O)N(C)C2CCN(C3CCCC3)CC2)c2ccccc12 (as salt: hydrochloride) [Example 144a, N-(1-cyclopentylpiperidin-4-yl)-N-methyl-4-((2-methyl-1H-benzo[d]imidazol-1-yl)methyl)-1-naphthamide]	228 to 230 °C	–
Cc1nc2ccccc2n1Cc1ccc(C(=O)N(C)C2CCN(C(C)C)CC2)c2ccccc12 (as salt: hydrochloride) [Example 144b, N-(1-isopropylpiperidin-4-yl)-N-methyl-4-((2-methyl-1H-benzo[d]imidazol-1-yl)methyl)-1-naphthamide]	153 to 155 °C	–
Cc1nc2ccccc2n1-c1ccc(C(=O)N(C)C2CCNCC2)cc1 [Example 30, N-Methyl-4-(2-methylbenzimidazol-1-yl)-N-piperidin-4-yl-benzamide Hydrochloride]	–	> 100 nM
Cc1nc2ccccc2n1-c1ccc(C(=O)N(C)C2CCN(C(C)C)CC2)cc1 [Example 31, N-(1-isopropylpiperidin-4-yl)-N-methyl-4-(2-methyl-1H-benzimidazol-1-yl)benzamide]	–	≤ 10 nM
Cc1nc2ccccc2n1-c1ccc(C(=O)N(C)C2CCN(C3CCCC3)CC2)cc1 [Example 32, N-(1-cyclopentylpiperidin-4-yl)-N-methyl-4-(2-methyl-1H-benzimidazol-1-yl)benzamide]	–	≤ 10 nM
Cc1nc2ccccc2n1-c1ccc(C(=O)N(C)C2CCN(C3CCCCC3)CC2)cc1 [Example 33, N-(1-cyclohexylpiperidin-4-yl)-N-methyl-4-(2-methyl-1H-benzimidazol-1-yl)benzamide]	–	> 100 nM
Cc1nc2ccccc2n1-c1ccc(C(=O)N(C)C2CCN(C3CCC3)CC2)cc1 [Example 34, N-(1-cyclobutylpiperidin-4-yl)-N-methyl-4-(2-methyl-1H-benzimidazol-1-yl)benzamide]	–	10.1 to 50 nM
Cc1nc2ccccc2n1Cc1ccc(C(=O)N(C)[C@@H]2CCNC2)cc1 [Example 35, N-Methyl-4-[(2-methylbenzimidazol-1-yl)methyl]-N—(R)-pyrrolidin-3-yl-benzamide Hydrochloride]	–	> 100 nM
